Laboratory results from patent publication US7705016B2, “Regulation of food intake by modulation of long-chain fatty acyl-CoA levels in the hypothalamus” (Albert Einstein College of Medicine of Yeshiva University, priority 2003, dated 2010).

Experiments:
[1] = system: PEPCK mRNA; assay: Hepatic PEPCK mRNA after ICV OA (northern blot); type: in vivo, rat; settings: either group (HF55, HF140)
Procedure: (§1) Northern Blot Analysis. Total RNA was isolated from hypothalami and liver with Trizol (Invitrogen Corp., California, USA). NPY, Glc-6-Pase or PEPCK expression was measured by northern blot analysis. Hypothalamic RNA was analyzed using probes for prepro-NPY and β-actin. To assess the effect of ICV OA on the expression of hepatic enzymes, total RNA was isolated from freeze-clamped liver tissues from rats subjected to insulin clamp studies. Glc-6-Pase and PEPCK cDNA were obtained as previously described (Combs et al., 2001; Massillon et al., 1996; 1998). Probes were labeled with [α-^32P] dCTP using a random primer kit (Stratagene). Quantification was performed by scanning densitometry, normalizing for β-actin signal and 18S ribosomal RNA to correct for loading variabilities. Effect of ICV OA on the hepatic expression of Glc-6-Pase and PEPCK. The potent effects of the central administration of OA on hepatic glucose fluxes prompted us to examine whether changes in the liver mRNA levels of key metabolic enzymes can partly account for these effects. Thus, we next measured the liver abundance of Glc-6-Pase and PEPCK mRNA as a function of 18S ribosomal RNA (FIG. 9d) or β-actin mRNA (not shown) in tissue samples obtained after ICV infusion of either OA or vehicle in caloric restricted and over-fed rats. […]

[2] = system: male Sprague-Dawley (S-D) rats; assay: Feeding behavior after ICV oleic acid bolus; type: in vivo, rat; settings: for decrease in food intake compared with pre-injection basal levels: SC animals
Description: Animals and Experimental Design. Ten week-old male Sprague-Dawley (S-D) rats (Charles River Breeding Laboratories, Inc., Wilmington, Mass.) were housed in individual cages and subjected to a standard light dark cycle (0600-1800/1800-0600). At 14 days before the in vivo studies, all rats received implantations of ICV catheters by stereotaxic surgery as previously described (36). Rats were allowed to recover completely before initiation of all in vivo studies. Animals were fed a standard chow (SC, cat. no. 5001, Purina Mills Ltd, with 59% calories provided by carbohydrate, 28% by protein and 12% by fat, 3.3 kcal/g), a high sucrose (HS; animals were given free access to a 20% sucrose solution in addition to their standard chow diet), or a highly palatable high fat diet (HF, cat. no. 9389; Purina Mills Ltd., with 45% calories provided by carbohydrate, 22% by protein and 33% by fat, 5.32 kcal/g) which was designed by the supplementation of the SC diet with 10% lard. The lard contained 2% myristic acid, 24% palmitic acid, 13% stearic acid, 46% oleic acid, and 12% linoleic acid. The total composition of fats in the HF diet was 5.2% saturated, 6.2% monounsaturated, and 2.7% polyunsaturated fat by weight. The SC diet contained 1%, 1.5%, and 1.6% of saturated, monounsaturated, and polyunsaturated fats by weight, respectively. Five groups of animals ere included in the feeding and metabolic studies (described below) after three days on the following diet regimens (Table 2): 1) SC ad libitum (SC; ˜80 kcal/day); 2) HS ad libitum (HS; ˜95 kcal/day); 3) HF ad libitum (HF140; ˜140 kcal/day); 4) HF calorie restricted (HF55; ˜55 kcal/day); and 5) HF pair-fed to SC(HF80; ˜80 kcal/day). Central Delivery of OA. OA was complexed with the polymer hydroxypropyl-3-cyclodextrin (HPB, CTD Inc). […] OA was solubilized in 45% HPB to a final concentration of 17 mM. The HPB-OA solution was diluted in artificial cerebral spinal fluid (aCSF) to the appropriate concentration used for each ICV injections (30 or 300 nmol/5 μl). HPB alone at a similar concentration as in the OA studies was used in all vehicle control studies. Feeding Behavior Studies. This experimental protocol was designed to examine the acute effect of ICV OA on food intake in three experimental groups fed a standard chow (SC), a high sucrose diet (HS95) and a high fat diet (HF140). SC and HF140 animals were allowed to eat their diets ad libitum. HS animals were given free access to a 20% sucrose solution in addition to the standard chow diet for three days. Following three days of ad libitum feeding in all groups, on study day 0 (FIG. 5a), rats were given an ICV bolus injection of either […] of OA (30 nmol) or vehicle at a rate of 1 μl/min using a gas-tight syringe (Hamilton Corp) one hour before the start of the dark cycle. Food intake was measured at the same time daily for three days post-injection.

[3] = system: Glc-6-Pase mRNA; assay: Hepatic Glc-6-Pase mRNA after ICV OA (northern blot); type: in vivo, rat
Procedure: as §1

[4] = system: rats; settings: rats fed standard chow, prolonged (16 h) fasting; cited from earlier work

With `CCCCCCCC/C=C\CCCCCCCC(=O)O` [OA, oleic acid] the “liver expression of PEPCK” value [1] was “failed to significantly alter”, the “decrease in daily food intake” value ([2]; HF140, ICV OA 30 nmol, first day) was 11% and the “decrease in daily food intake” value ([2]; HF140, ICV OA 30 nmol, second day) was −2%. The “decrease in daily food intake” value ([2]; HS95, ICV OA 30 nmol, first day) was 21%, the “decrease in daily food intake” value ([2]; HS95, ICV OA 30 nmol, second day) was 17% and the “decrease in food intake compared with pre-injection basal levels” value ([2]; ICV OA 30 nmol, first day) was 48%. For the same molecule, the “decrease in food intake compared with pre-injection basal levels” value ([2]; ICV OA 30 nmol, second day) was 52%, the “return to baseline food intake after the OA injection” value ([2]; all groups (SC, HS95, HF140)) was 3 days and the “effect on feeding behavior” value ([2]; high fat chow) was “failed to significantly alter feeding behavior”. The “effect on feeding behavior” value ([2]; high sucrose chow) was “failed to significantly alter feeding behavior”, the duration of anorexia ([2]; standard chow, ICV OA 30 nmol) was 48 h and the “decrease in food intake” value ([2]; standard chow, for 2 days) was roughly 50%. The “suppression of hepatic Glc-6-Pase mRNA expression” value ([3]; HF55 group, ICV OA vs ICV vehicle) was roughly 73%, the “hepatic Glc-6-Pase mRNA expression” value ([3]; HF140 group) was “no changes detected” and the “decrease in hypothalamic NPY mRNA compared with ICV vehicle” value [4] was roughly 50%.
